pIC50: −log10 of the molar value.
biological target: T1, rat mGlu2 (Rattus norvegicus, UniProt P31421); experiment: mGlu GIRK cell-based thallium flux assay, rat mGlu2; conditions: HEK-293 cells co-expressing rat mGlu2 and GIRK, EC80 glutamate
T1 construct: expressed in transfected cells; host or cells: HEK-293 cells stably co-expressing GIRK channels
Protocol: Human embryonic kidney (HEK-293) cell lines stably co-expressing human or rat mGlu2 and G protein-coupled inwardly rectifying potassium (GIRK) channels, or human mGlu3 and GIRK, were used for in vitro evaluation of compound activity in thallium flux assay using a fluorescent thallium indicator dye.
The day before the assay, GIRK cells co-expressing human mGlu3, human or rat mGlu2, as described above, were plated in black-walled, clear-bottomed, amine-coated 384-well plates at a density of 15,000 cells/20 μL/well in the assay medium (glutamine-depleted basal DMEM supplemented with 10% dialyzed FBS, 20 mM HEPES, 1 mM sodium pyruvate). Cells were incubated at 37° C. in the presence of 5% CO2. The next day, assay buffer (Hanks balanced salt solution, 20 mM HEPES, 4.16 mM sodium bicarbonate, pH 7.2) was prepared to dilute compounds and Thallos AM fluorescent dye solution. The 2× Thallos dye solution (final concentration 0.34 μM to the cells) was prepared by mixing the dye stock (2.97 mM in DMSO) to 1:1 with 10% pluronic acid before adding to the assay buffer. Cells were washed with assay buffer using a microplate washer to remove the medium, resulting in 20 μL of buffer remaining in each well. Immediately, 20 μL of 2× Thallos dye solution was added to cells, and incubated for one hour at 25° C. During the cell dye loading incubation period, a 10-point concentration serial dilution of compound was created from a 10 mM DMSO compound stock by performing a 1:3 serial dilution in DMSO using the Bravo liquid handler. The 2× compound plate was generated by transferring 0.24 μL of the diluted compound in each well to a daughter plate using an Echo acoustic liquid handler. This is further diluted in 40 μL assay buffer, resulting in a range from 30 μM to 1.5 nM final concentration in the assay. The agonist plate (5×) was prepared to include EC80 glutamate concentration (a concentration to elicit 80% of a maximally effective glutamate concentration) in thallium buffer (125 mM […], 1 mM magnesium sulfate, 1.8 mM calcium sulfate, 5 mM glucose, 10 mM HEPES, pH 7.2, 12.5 mM thallium sulfate).
After dye-loading, cell plates were washed with assay buffer to remove excess extracellular dye using a microplate washer, resulting in 20 μL of buffer remaining in each well. After a ten-minute equilibration period, cell, compound and agonist plates were loaded into a Hamamatsu μCell kinetic imaging plate reader equipped with liquid handler to monitor fluorescence changes at 480 nm excitation and 540 nm emission settings. Briefly, after collection of baseline fluorescence, 20 μL of compound was added and incubated for two minutes and twenty seconds. This is immediately followed by adding 10 μL of glutamate-thallium buffer to the wells containing compound. The fluorescent signal was monitored an additional 2.5 minutes after the glutamate addition. Multiple reference wells containing no compound received either no glutamate (for a baseline reference), EC80 glutamate, or ECmax glutamate (for normalization to maximum response). Fluorescence was measured throughout the experiment at a frequency of 1 measurement per every 2 seconds before the glutamate addition and a frequency of 1 measurement per every 1 second after the glutamate addition. Each compound concentration series occurred one time in each plate, and replicates from two or three plates were used in each experimental run. Thallium solutions were handled and disposed of according to guidelines from the Vanderbilt University Chemical Safety department.
Data were normalized using a static ratio function (F/F0) by dividing every fluorescent measurement by the initial fluorescent value for the corresponding well. The increase in signal resulting from the glutamate/thallium addition of the second add was measured by determining the slope from 3 seconds to 13 seconds after the addition. […]

T1 sequence (P31421 19-872): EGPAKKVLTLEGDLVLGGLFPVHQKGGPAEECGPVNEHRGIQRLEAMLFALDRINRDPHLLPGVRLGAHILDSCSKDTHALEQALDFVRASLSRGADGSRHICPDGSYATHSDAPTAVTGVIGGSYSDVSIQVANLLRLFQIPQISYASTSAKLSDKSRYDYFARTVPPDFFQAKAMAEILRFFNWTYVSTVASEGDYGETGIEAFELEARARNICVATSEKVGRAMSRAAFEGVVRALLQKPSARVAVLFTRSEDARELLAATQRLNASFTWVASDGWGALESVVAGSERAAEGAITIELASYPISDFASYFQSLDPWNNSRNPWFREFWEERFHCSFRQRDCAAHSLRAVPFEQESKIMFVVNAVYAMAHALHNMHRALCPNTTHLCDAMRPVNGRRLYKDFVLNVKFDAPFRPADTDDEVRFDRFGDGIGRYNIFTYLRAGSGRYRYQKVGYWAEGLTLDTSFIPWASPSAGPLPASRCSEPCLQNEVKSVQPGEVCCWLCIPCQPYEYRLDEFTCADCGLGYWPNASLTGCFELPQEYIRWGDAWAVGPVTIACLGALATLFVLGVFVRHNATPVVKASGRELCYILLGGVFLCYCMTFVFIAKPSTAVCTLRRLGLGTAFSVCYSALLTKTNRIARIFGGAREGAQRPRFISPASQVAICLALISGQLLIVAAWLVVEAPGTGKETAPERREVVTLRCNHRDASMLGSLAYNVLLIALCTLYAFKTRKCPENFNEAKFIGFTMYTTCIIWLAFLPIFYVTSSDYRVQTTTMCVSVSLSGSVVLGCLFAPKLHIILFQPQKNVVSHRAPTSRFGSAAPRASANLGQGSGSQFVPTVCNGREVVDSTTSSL

SMILES	pIC50
CC1CC(c2cc3c(cc2-c2ccc(F)cc2)C(=O)NC3)CCN1 (stereo not shown) [Compound 85, 6-(4-fluorophenyl)-5-(2-methylpiperidin-4-yl)isoindolin-1-one]	< 5.00
N#Cc1cccc(-c2cc3c(cc2-c2ccc(F)cc2F)C(=O)NC3)c1 [Compound 107, 3-(6-(2,4-difluorophenyl)-1-oxoisoindolin-5-yl)benzonitrile]	6.23
Cc1ncccc1-c1cc2c(cc1-c1ccc(F)cc1)C(=O)NC2 [Compound 41, 6-(4-fluorophenyl)-5-(2-methylpyridin-3-yl)isoindolin-1-one]	< 5.00
CC1CC(c2cc3c(cc2-c2ccc(F)cc2)C(=O)NC3)=CCN1 (stereo not shown) [Compound 84, 6-(4-fluorophenyl)-5-(2-methyl-1,2,3,6-tetrahydropyridin-4-yl)isoindolin-1-one]	< 5.00
Cn1cc2cccc(-c3cc4c(cc3-c3ccc(F)cc3)C(=O)NC4)c2n1 [Compound 17, 6-(4-fluorophenyl)-5-(2-methyl-2H-indazol-7-yl)isoindolin-1-one]	5.91
O=C1NCc2cc(C3CCCNC3)c(-c3ccc(F)cc3)cc21 (stereo not shown) [Compound 78, 6-(4-fluorophenyl)-5-(piperidin-3-yl)isoindolin-1-one]	< 5.00
CN(C)c1ncccc1-c1cc2c(cc1-c1ccc(F)cc1F)C(=O)NC2 [Compound 71, 6-(2,4-difluorophenyl)-5-(2-(dimethylamino)pyridin-3-yl)isoindolin-1-one]	5.29
O=C1NCc2cc(-c3cccnc3)c(-c3ccc(F)cc3F)cc21 [Compound 88, 6-(2,4-difluorophenyl)-5-(pyridin-3-yl)isoindolin-1-one]	5.78
CC1(C)C=C(c2cc3c(cc2-c2ccc(F)cc2)C(=O)NC3)CC(C)(C)N1 [Compound 59, 6-(4-fluorophenyl)-5-(2,2,6,6-tetramethyl-1,2,3,6-tetrahydropyridin-4-yl)isoindolin-1-one]	< 5.00
O=C1NCc2cc(C3=CCNCC3)c(-c3ccc(F)cc3)cc21 [Compound 60, 6-(4-fluorophenyl)-5-(1,2,3,6-tetrahydropyridin-4-yl)isoindolin-1-one]	< 5.00
O=C1NCc2cc(-c3cnc4[nH]ccc4c3)c(-c3ccc(F)cc3)cc21 [Compound 38, 6-(4-fluorophenyl)-5-(1H-pyrrolo[2,3-b]pyridin-5-yl)isoindolin-1-one]	5.71
Cc1ccncc1-c1cc2c(cc1-c1ccc(F)cc1)C(=O)NC2 [Compound 48, 6-(4-fluorophenyl)-5-(4-methylpyridin-3-yl)isoindolin-1-one]	< 5.00
CC1C=C(c2cc3c(cc2-c2ccc(F)cc2)C(=O)NC3)CC(C)N1 (stereo not shown) [Compound 62, 5-(2,6-dimethyl-1,2,3,6-tetrahydropyridin-4-yl)-6-(4-fluorophenyl)isoindolin-1-one]	< 5.00
O=C1NCc2cc(-c3cc(F)c4ncccc4c3F)c(-c3ccc(F)cc3)cc21 [Compound 21, 5-(5,8-difluoroquinolin-6-yl)-6-(4-fluorophenyl)isoindolin-1-one]	5.42
CC1CNCCC1c1cc2c(cc1-c1ccc(F)cc1)C(=O)NC2 (stereo not shown) [Compound 77, 6-(4-fluorophenyl)-5-(3-methylpiperidin-4-yl)isoindolin-1-one]	< 5.00
N#Cc1ccc(-n2cc(-c3cc4c(cc3-c3ccc(F)cc3F)C(=O)NC4)cn2)cc1 [Compound 111, 4-(4-(6-(2,4-difluorophenyl)-1-oxoisoindolin-5-yl)-1H-pyrazol-1-yl)benzonitrile]	< 5.00
O=C1NCc2cc(-c3ccc4cnccc4c3)c(-c3ccc(F)cc3)cc21 [Compound 14, 6-(4-fluorophenyl)-5-(isoquinolin-6-yl)isoindolin-1-one]	5.65
CN1CCCC(c2cc3c(cc2-c2ccc(F)cc2)C(=O)NC3)C1 (stereo not shown) [Compound 65, 6-(4-fluorophenyl)-5-(1-methylpiperidin-3-yl)isoindolin-1-one]	< 5.00
Cn1ccc(-c2cc3c(cc2-c2ccc(F)cc2F)C(=O)NC3)n1 [Compound 80, 6-(2,4-difluorophenyl)-5-(1-methyl-1H-pyrazol-3-yl)isoindolin-1-one]	5.96

Source: patent US20260098030A1, “NEGATIVE ALLOSTERIC MODULATORS OF METABOTROPIC GLUTAMATE RECEPTOR 2” (Vanderbilt University, priority 2022, published 2026)
